The assay deals with L1210 leukemia ip in BDF1 mice, survival T/C. Kind of assay: NCI In Vivo Anticancer Drug Screen. Data for tumor model L1210 Leukemia (intraperitoneal) in B6D2F1 (BDF1) mice. The note with it: higher = longer survival. In a few lines: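 Transplanted-tumor mice were given test agent; controls received vehicle only. Survival readings from the two groups were divided (treated over control).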

Values joined by “and” are separate entries in the source; they are usually repeats but may differ in a detail not shown here. Equal entries are not always repeated. Toxic doses and inconclusive results are not listed.

For `N#[N+]c1cnc([O-])[nH]c1=O`, the T/C was 103 % of control (endpoint: mean survival time, dose: 0.31 mg/kg/injection, schedule: Q#A X Z (ip), vehicle: methylcellulose (MC)); 102 % of control (endpoint: mean survival time, dose: 0.6 mg/kg/injection, schedule: Q01DX Z (im), vehicle: saline); 104 % of control (endpoint: mean survival time, dose: 0.6 mg/kg/injection, schedule: Q01DX Z (ip), vehicle: saline); 108 % of control (endpoint: mean survival time, dose: 0.62 mg/kg/injection, schedule: Q#A X Z (ip), vehicle: methylcellulose (MC)); 119 % of control (endpoint: mean survival time, dose: 1.0 mg/kg/injection, schedule: Q01DX009 (ip), vehicle: saline); 120 % of control (endpoint: mean survival time, dose: 1.2 mg/kg/injection, schedule: Q01DX Z (ip), vehicle: saline). Moreover, the T/C is 115 % of control (endpoint: mean survival time, dose: 1.75 mg/kg/injection, schedule: Q01DX Z (ip), vehicle: carboxymethylcellulose (CMC)); 103 % of control (endpoint: mean survival time, dose: 2.0 mg/kg/injection, schedule: Q01DX009 (sc), vehicle: carboxymethylcellulose (CMC)); 110 % of control (endpoint: mean survival time, dose: 2.5 mg/kg/injection, schedule: Q01DX006 (iv), vehicle: saline); 107 % of control (endpoint: mean survival time, dose: 2.5 mg/kg/injection, schedule: Q01DX010 (ip), vehicle: saline); 112 % of control (endpoint: mean survival time, dose: 2.5 mg/kg/injection, schedule: Q01DX Z (sc), vehicle: steriod suspending solution); 123 % of control (endpoint: mean survival time, dose: 3.75 mg/kg/injection, schedule: Q03DX Z (ip), vehicle: methylcellulose (MC)). Further, the T/C (endpoint: mean survival time, dose: 4.0 mg/kg/injection, schedule: Q01DX001 (sc), vehicle: carboxymethylcellulose (CMC)) was 100 % of control; the T/C (endpoint: mean survival time, dose: 4.0 mg/kg/injection, schedule: Q01DX009 (sc), vehicle: carboxymethylcellulose (CMC)) is 105 % of control; the T/C (endpoint: mean survival time, dose: 4.0 mg/kg/injection, schedule: Q## X008 (ip), vehicle: carboxymethylcellulose (CMC)) is 120 % of control; the T/C (endpoint: mean survival time, dose: 4.0 mg/kg/injection, schedule: Q## X016 (ip), vehicle: carboxymethylcellulose (CMC)) was 119 % of control; the T/C (endpoint: mean survival time, dose: 4.0 mg/kg/injection, schedule: Q## X024 (ip), vehicle: carboxymethylcellulose (CMC)) was 118 % of control; the T/C (endpoint: mean survival time, dose: 5.0 mg/kg/injection, schedule: Q01DX006 (iv), vehicle: saline) is 115 % of control. Besides, the T/C reads like this: (endpoint: mean survival time, dose: 5.0 mg/kg/injection, schedule: Q01DX Z (ip), vehicle: saline) 113 % of control and 118 % of control; (endpoint: mean survival time, dose: 5.0 mg/kg/injection, schedule: Q04DX003 (ip), vehicle: Klucel (hydroxypropylcellulose) (HPC)) 124 % of control; (endpoint: mean survival time, dose: 5.0 mg/kg/injection, schedule: Q04DX003 (ip), vehicle: saline) 104 % of control and 123 % of control; (endpoint: mean survival time, dose: 8.0 mg/kg/injection, schedule: Q01DX001 (sc), vehicle: carboxymethylcellulose (CMC)) 103 % of control; (endpoint: mean survival time, dose: 8.0 mg/kg/injection, schedule: Q01DX009 (ip), vehicle: carboxymethylcellulose (CMC)) 165 % of control; (endpoint: mean survival time, dose: 8.0 mg/kg/injection, schedule: Q01DX009 (ip), vehicle: saline) 121 % of control. The T/C is, setting by setting: (endpoint: mean survival time, dose: 8.0 mg/kg/injection, schedule: Q01DX009 (sc), vehicle: carboxymethylcellulose (CMC)) 107 % of control; (endpoint: mean survival time, dose: 8.0 mg/kg/injection, schedule: Q## X016 (ip), vehicle: carboxymethylcellulose (CMC)) 120 % of control; (endpoint: mean survival time, dose: 8.0 mg/kg/injection, schedule: Q## X024 (ip), vehicle: carboxymethylcellulose (CMC)) 120 % of control; (endpoint: mean survival time, dose: 8.75 mg/kg/injection, schedule: Q07DX Z (ip), vehicle: methylcellulose (MC)) 112 % of control; (endpoint: mean survival time, dose: 9.49 mg/kg/injection, schedule: Q01DX Z (oral), vehicle: carboxymethylcellulose (CMC)) 98 % of control; (endpoint: mean survival time, dose: 10.0 mg/kg/injection, schedule: Q01DX005 (ip), vehicle: Klucel (hydroxypropylcellulose) (HPC)) 157 % of control. Besides, the T/C by setting is: (endpoint: mean survival time, dose: 10.0 mg/kg/injection, schedule: Q01DX006 (iv), vehicle: saline) 106 % of control and 108 % of control; (endpoint: mean survival time, dose: 10.0 mg/kg/injection, schedule: Q01DX010 (ip), vehicle: saline) 155 % of control; (endpoint: mean survival time, dose: 10.0 mg/kg/injection, schedule: Q01DX Z (im), vehicle: saline) 118 % of control; (endpoint: mean survival time, dose: 10.0 mg/kg/injection, schedule: Q01DX Z (oral), vehicle: saline) 106 % of control; (endpoint: mean survival time, dose: 10.0 mg/kg/injection, schedule: Q04DX003 (ip), vehicle: Klucel (hydroxypropylcellulose) (HPC)) 124 % of control; (endpoint: mean survival time, dose: 10.0 mg/kg/injection, schedule: Q04DX003 (ip), vehicle: saline) 114 % of control. Further, the T/C (endpoint: mean survival time, dose: 14.2 mg/kg/injection, schedule: Q01DX Z (oral), vehicle: carboxymethylcellulose (CMC)) was 101 % of control; the T/C (endpoint: mean survival time, dose: 15.0 mg/kg/injection, schedule: Q01DX001 (ip), vehicle: saline) is 122 % of control and 91 % of control; the T/C (endpoint: mean survival time, dose: 15.0 mg/kg/injection, schedule: Q03DX Z (ip), vehicle: methylcellulose (MC)) was 152 % of control; the T/C (endpoint: mean survival time, dose: 16.0 mg/kg/injection, schedule: Q01DX001 (sc), vehicle: carboxymethylcellulose (CMC)) is 101 % of control; the T/C (endpoint: mean survival time, dose: 16.0 mg/kg/injection, schedule: Q01DX009 (sc), vehicle: carboxymethylcellulose (CMC)) was 124 % of control; the T/C (endpoint: mean survival time, dose: 16.0 mg/kg/injection, schedule: Q## X024 (ip), vehicle: carboxymethylcellulose (CMC)) is 115 % of control. For the same molecule, the T/C (endpoint: mean survival time, dose: 17.5 mg/kg/injection, schedule: Q07DX Z (ip), vehicle: methylcellulose (MC)) was 124 % of control; the T/C (endpoint: mean survival time, dose: 20.0 mg/kg/injection, schedule: Q01DX006 (iv), vehicle: saline) was 102 % of control and 120 % of control; the T/C (endpoint: mean survival time, dose: 20.0 mg/kg/injection, schedule: Q01DX Z (oral), vehicle: saline) was 115 % of control; the T/C (endpoint: mean survival time, dose: 20.0 mg/kg/injection, schedule: Q04DX003 (ip), vehicle: saline) was 116 % of control and 119 % of control; the T/C (endpoint: mean survival time, dose: 21.3 mg/kg/injection, schedule: Q01DX Z (oral), vehicle: carboxymethylcellulose (CMC)) is 97 % of control; the T/C (endpoint: mean survival time, dose: 29.0 mg/kg/injection, schedule: Q01DX001 (ip), vehicle: alkali diluted with saline) is 153 % of control. Moreover, the T/C is, setting by setting: (endpoint: mean survival time, dose: 32.0 mg/kg/injection, schedule: Q01DX Z (oral), vehicle: carboxymethylcellulose (CMC)) 104 % of control; (endpoint: mean survival time, dose: 32.0 mg/kg/injection, schedule: Q01DX Z (oral), vehicle: methylcellulose (MC)) 95 % of control; (endpoint: mean survival time, dose: 40.0 mg/kg/injection, schedule: Q01DX006 (iv), vehicle: saline) 113 % of control; (endpoint: mean survival time, dose: 40.0 mg/kg/injection, schedule: Q01DX009 (oral), vehicle: carboxymethylcellulose (CMC)) 104 % of control; (endpoint: mean survival time, dose: 40.0 mg/kg/injection, schedule: Q01DX Z (oral), vehicle: saline) 107 % of control and 116 % of control; (endpoint: mean survival time, dose: 80.0 mg/kg/injection, schedule: Q01DX009 (oral), vehicle: carboxymethylcellulose (CMC)) 109 % of control. Besides, the T/C is 106 % of control (endpoint: mean survival time, dose: 80.0 mg/kg/injection, schedule: Q01DX Z (oral), vehicle: saline); 104 % of control (endpoint: mean survival time, dose: 160.0 mg/kg/injection, schedule: Q01DX001 (oral), vehicle: carboxymethylcellulose (CMC)); 102 % of control (endpoint: mean survival time, dose: 240.0 mg/kg/injection, schedule: Q01DX001 (oral), vehicle: carboxymethylcellulose (CMC)); 164 % of control (endpoint: median survival time, dose: 5.0 mg/kg/injection, schedule: Q01DX009 (ip), vehicle: saline); 172 % of control and 200 % of control (endpoint: median survival time, dose: 10.0 mg/kg/injection, schedule: Q01DX009 (ip), vehicle: saline).
Consider `CCc1nc(N[N+](=O)[O-])nc(-c2ccccc2)c1-c1ccccc1O`, for which the T/C reads like this: (endpoint: mean survival time, dose: 100.0 mg/kg/injection, schedule: Q04DX002 (ip), vehicle: Klucel (hydroxypropylcellulose) (HPC)) 107 % of control; (endpoint: mean survival time, dose: 200.0 mg/kg/injection, schedule: Q04DX002 (ip), vehicle: Klucel (hydroxypropylcellulose) (HPC)) 94 % of control; (endpoint: mean survival time, dose: 400.0 mg/kg/injection, schedule: Q04DX002 (ip), vehicle: Klucel (hydroxypropylcellulose) (HPC)) 107 % of control.
On to `CCOC(=O)/C=C\CBr`, for which the T/C (endpoint: mean survival time, dose: 4.0 mg/kg/injection, schedule: Q01DX015 (ip), vehicle: carboxymethylcellulose (CMC)) was 95 % of control; the T/C (endpoint: mean survival time, dose: 8.0 mg/kg/injection, schedule: Q01DX015 (ip), vehicle: carboxymethylcellulose (CMC)) is 93 % of control; the T/C (endpoint: mean survival time, dose: 16.0 mg/kg/injection, schedule: Q01DX015 (ip), vehicle: carboxymethylcellulose (CMC)) is 93 % of control; the T/C (endpoint: mean survival time, dose: 32.0 mg/kg/injection, schedule: Q01DX015 (ip), vehicle: carboxymethylcellulose (CMC)) was 101 % of control; the T/C (endpoint: mean survival time, dose: 100.0 mg/kg/injection, schedule: Q01DX001 (ip), vehicle: saline) was 104 % of control.

The record behind these values is PubChem BioAssay AID248 (DTP/NCI, 2004).
